{
  "source": "paper PMC11864979",
  "about": "“First-in-class ultralong-target-residence-time p38α inhibitors as a mitosis-targeted therapy for colorectal cancer” (Nature Cancer, 2025)",
  "experiment_in_all_cases": "selectivity profiling in a panel of 340 wild-type kinases (Reaction Biology Europe)",
  "format_in_all_cases": "binding",
  "key": {"[1]": {"target": "T1, 340 wild-type kinases (Homo sapiens, UniProt O75716)", "T1 construct": "purchased Reaction Biology Europe", "T1 sequence (O75716 whole entry)": "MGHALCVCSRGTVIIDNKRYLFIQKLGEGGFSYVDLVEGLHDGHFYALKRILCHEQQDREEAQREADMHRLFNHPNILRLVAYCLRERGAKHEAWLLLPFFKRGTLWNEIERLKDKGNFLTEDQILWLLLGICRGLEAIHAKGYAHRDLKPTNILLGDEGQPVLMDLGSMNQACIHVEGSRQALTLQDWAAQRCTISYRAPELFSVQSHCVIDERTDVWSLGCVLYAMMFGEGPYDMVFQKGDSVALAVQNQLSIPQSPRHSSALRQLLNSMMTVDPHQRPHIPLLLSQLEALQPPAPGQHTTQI"}, "[2]": {"target": "T2, 340 wild-type kinases (Homo sapiens, UniProt P06241)", "T2 construct": "purchased Reaction Biology Europe", "T2 sequence (P06241 whole entry)": "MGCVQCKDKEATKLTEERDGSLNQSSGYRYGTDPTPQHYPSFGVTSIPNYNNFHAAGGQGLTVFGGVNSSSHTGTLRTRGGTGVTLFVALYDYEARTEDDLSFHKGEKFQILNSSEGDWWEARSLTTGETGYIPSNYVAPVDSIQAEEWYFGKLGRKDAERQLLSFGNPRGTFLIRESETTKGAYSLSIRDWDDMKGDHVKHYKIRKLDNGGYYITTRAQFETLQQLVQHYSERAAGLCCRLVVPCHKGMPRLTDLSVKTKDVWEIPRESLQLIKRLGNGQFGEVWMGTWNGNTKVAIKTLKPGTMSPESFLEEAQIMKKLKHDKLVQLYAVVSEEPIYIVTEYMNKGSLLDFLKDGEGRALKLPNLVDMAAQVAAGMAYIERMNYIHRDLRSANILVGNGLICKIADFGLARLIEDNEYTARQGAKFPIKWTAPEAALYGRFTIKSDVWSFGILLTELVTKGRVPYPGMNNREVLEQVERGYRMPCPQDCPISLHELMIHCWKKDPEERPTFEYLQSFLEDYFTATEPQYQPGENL"}, "[3]": {"target": "T3, 340 wild-type kinases (Homo sapiens, UniProt P27361)", "T3 construct": "purchased Reaction Biology Europe", "T3 sequence (P27361 whole entry)": "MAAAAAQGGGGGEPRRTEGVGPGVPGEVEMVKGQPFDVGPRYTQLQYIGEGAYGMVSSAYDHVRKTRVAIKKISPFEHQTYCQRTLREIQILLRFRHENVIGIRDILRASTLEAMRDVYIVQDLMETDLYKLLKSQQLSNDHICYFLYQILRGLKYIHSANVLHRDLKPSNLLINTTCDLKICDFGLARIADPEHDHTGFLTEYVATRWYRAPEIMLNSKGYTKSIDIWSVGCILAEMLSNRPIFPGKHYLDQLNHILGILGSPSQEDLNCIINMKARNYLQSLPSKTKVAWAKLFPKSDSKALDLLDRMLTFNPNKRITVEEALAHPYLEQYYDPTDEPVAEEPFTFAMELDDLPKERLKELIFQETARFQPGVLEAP"}, "[4]": {"target": "T4, 340 wild-type kinases (Homo sapiens, UniProt P48730)", "T4 construct": "purchased Reaction Biology Europe", "T4 sequence (P48730 whole entry)": "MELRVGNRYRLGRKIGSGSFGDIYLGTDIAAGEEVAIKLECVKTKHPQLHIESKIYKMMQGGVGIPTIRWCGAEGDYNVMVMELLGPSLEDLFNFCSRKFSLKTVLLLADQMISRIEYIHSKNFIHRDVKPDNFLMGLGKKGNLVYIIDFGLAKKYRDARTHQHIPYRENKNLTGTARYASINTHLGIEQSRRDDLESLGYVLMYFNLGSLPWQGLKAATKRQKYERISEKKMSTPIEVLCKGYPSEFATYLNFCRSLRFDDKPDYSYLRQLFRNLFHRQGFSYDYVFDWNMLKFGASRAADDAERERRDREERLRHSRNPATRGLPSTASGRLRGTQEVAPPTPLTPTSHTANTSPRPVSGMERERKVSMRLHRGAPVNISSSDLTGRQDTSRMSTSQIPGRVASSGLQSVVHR"}, "[5]": {"target": "T5, 340 wild-type kinases (Homo sapiens, UniProt P53667)", "T5 construct": "purchased Reaction Biology Europe", "T5 sequence (P53667 whole entry)": "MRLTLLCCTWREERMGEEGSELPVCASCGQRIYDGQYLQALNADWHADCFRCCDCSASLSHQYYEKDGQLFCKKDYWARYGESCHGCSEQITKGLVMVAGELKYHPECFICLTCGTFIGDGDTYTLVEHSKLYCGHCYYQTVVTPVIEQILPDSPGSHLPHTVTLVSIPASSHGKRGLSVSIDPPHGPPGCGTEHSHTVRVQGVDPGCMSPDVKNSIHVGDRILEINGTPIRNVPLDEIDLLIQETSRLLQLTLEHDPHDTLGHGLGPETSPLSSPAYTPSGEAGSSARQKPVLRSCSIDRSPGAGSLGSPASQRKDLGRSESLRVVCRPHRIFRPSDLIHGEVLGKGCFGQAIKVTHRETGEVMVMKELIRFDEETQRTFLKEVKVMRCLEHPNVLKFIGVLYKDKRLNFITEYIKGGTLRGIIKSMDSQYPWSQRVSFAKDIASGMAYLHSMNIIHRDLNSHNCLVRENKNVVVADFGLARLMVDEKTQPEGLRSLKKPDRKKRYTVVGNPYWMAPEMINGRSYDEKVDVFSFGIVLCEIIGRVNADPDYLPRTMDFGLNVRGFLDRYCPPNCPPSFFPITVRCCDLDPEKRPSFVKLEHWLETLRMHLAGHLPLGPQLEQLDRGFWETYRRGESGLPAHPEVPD"}, "[6]": {"target": "T6, 340 wild-type kinases (Homo sapiens, UniProt Q8TD19)", "T6 construct": "purchased Reaction Biology Europe", "T6 sequence (Q8TD19 1-979)": "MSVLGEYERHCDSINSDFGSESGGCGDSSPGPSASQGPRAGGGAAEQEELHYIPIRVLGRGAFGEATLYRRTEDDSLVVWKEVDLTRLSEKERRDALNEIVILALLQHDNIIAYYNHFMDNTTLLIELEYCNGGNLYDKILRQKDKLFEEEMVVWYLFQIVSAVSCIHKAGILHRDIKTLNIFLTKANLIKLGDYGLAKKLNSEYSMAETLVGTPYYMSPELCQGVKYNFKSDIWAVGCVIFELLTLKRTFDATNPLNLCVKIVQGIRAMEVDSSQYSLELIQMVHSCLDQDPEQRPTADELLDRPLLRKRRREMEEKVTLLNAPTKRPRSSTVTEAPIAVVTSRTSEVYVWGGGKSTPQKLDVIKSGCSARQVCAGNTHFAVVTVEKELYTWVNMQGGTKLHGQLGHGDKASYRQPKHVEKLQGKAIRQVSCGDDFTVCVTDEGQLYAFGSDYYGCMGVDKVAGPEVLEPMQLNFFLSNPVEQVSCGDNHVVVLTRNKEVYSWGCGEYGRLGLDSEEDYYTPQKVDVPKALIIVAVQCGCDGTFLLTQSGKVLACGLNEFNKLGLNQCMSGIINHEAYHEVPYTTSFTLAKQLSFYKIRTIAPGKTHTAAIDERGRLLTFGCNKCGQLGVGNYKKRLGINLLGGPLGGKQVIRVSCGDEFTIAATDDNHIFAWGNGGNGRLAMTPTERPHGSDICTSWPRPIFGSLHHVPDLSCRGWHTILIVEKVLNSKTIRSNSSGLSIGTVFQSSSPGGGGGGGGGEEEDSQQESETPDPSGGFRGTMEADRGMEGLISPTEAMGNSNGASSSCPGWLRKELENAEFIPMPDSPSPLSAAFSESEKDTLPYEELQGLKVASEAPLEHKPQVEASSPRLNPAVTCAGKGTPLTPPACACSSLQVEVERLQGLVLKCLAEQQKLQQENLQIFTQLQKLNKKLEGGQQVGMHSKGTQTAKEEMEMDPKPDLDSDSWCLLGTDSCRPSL"}, "[7]": {"target": "T7, 340 wild-type kinases (Homo sapiens, UniProt Q8TF76)", "T7 construct": "purchased Reaction Biology Europe", "T7 sequence (Q8TF76 1-798)": "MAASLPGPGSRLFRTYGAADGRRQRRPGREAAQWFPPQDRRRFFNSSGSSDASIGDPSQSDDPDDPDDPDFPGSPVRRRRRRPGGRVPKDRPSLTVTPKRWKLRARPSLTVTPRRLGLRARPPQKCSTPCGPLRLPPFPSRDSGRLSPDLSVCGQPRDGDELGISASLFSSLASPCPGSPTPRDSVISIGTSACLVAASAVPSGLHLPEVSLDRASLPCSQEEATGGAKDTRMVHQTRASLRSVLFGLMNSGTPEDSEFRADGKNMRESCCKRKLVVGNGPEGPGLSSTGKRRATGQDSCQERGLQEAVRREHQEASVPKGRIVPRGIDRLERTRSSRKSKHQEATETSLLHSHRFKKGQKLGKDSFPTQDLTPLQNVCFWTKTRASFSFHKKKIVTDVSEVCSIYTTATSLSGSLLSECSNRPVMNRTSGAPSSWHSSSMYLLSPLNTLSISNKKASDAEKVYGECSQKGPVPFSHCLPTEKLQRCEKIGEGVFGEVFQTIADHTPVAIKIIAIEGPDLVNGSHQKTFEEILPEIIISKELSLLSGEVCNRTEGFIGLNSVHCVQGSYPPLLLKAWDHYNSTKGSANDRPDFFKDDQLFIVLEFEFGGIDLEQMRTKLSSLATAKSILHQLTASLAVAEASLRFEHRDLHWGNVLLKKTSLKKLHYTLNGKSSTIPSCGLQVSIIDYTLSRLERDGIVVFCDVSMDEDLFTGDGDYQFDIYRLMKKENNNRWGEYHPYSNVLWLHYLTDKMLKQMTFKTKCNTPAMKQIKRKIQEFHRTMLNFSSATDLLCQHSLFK"}},
  "note": "Read-outs that look alike come from different tables or passages of the source.",
  "data": [
    {"molecule": "CNC(=O)c1ccc2c(c1)C(=O)c1ccc(Nc3ccc(F)c(NC(=O)C4CC4)c3)cc1CC2", "note": "[Compound 2015]", "values": [
      {"measurement": "remaining activity at 0.2 µM", "setting": "[1]; 0.2 µM 2015, read-out: TSF1 residual activity", "result": 95.7, "unit": "%"},
      {"measurement": "remaining activity at 1 µM", "setting": "[1]; 1 µM 2015, read-out: TSF1 residual activity", "result": 85.7, "unit": "%"},
      {"measurement": "remaining activity at 0.2 µM", "setting": "[1]; TSF1, 0.2 µM, read-out: residual activity", "result": 95.7, "unit": "%"},
      {"measurement": "remaining activity at 1 µM", "setting": "[1]; TSF1, 1 µM, read-out: residual activity", "result": 85.7, "unit": "%"},
      {"measurement": "remaining activity at 0.2 µM", "setting": "[2]; 0.2 µM 2015, read-out: FYN residual activity", "result": 119, "unit": "%"},
      {"measurement": "remaining activity at 1 µM", "setting": "[2]; 1 µM 2015, read-out: FYN residual activity", "result": 101, "unit": "%"},
      {"measurement": "remaining activity at 0.2 µM", "setting": "[2]; FYN, 0.2 µM, read-out: residual activity", "result": 119, "unit": "%"},
      {"measurement": "remaining activity at 1 µM", "setting": "[2]; FYN, 1 µM, read-out: residual activity", "result": 101, "unit": "%"},
      {"measurement": "remaining activity at 1 µM", "setting": "[3]; 1 µM 2015, read-out: ERK1 residual activity", "result": 104, "unit": "%"},
      {"measurement": "remaining activity at 0.2 µM", "setting": "[3]; ERK1, 0.2 µM, read-out: residual activity", "result": 108, "unit": "%"},
      {"measurement": "remaining activity at 1 µM", "setting": "[3]; ERK1, 1 µM, read-out: residual activity", "result": 104, "unit": "%"},
      {"measurement": "remaining activity at 0.2 µM", "setting": "[4]; 0.2 µM 2015, read-out: CK1delta residual activity", "result": 117, "unit": "%"},
      {"measurement": "remaining activity at 1 µM", "setting": "[4]; 1 µM 2015, read-out: CK1delta residual activity", "result": 111, "unit": "%"},
      {"measurement": "remaining activity at 0.2 µM", "setting": "[4]; CK1delta, 0.2 µM, read-out: residual activity", "result": 117, "unit": "%"},
      {"measurement": "remaining activity at 1 µM", "setting": "[4]; CK1delta, 1 µM, read-out: residual activity", "result": 111, "unit": "%"},
      {"measurement": "remaining activity at 0.2 µM", "setting": "[5]; 0.2 µM 2015, read-out: LIMK1 residual activity", "result": 102, "unit": "%"},
      {"measurement": "remaining activity at 1 µM", "setting": "[5]; 1 µM 2015, read-out: LIMK1 residual activity", "result": 92.9, "unit": "%"},
      {"measurement": "remaining activity at 0.2 µM", "setting": "[5]; LIMK1, 0.2 µM, read-out: residual activity", "result": 102, "unit": "%"},
      {"measurement": "remaining activity at 1 µM", "setting": "[5]; LIMK1, 1 µM, read-out: residual activity", "result": 92.9, "unit": "%"},
      {"measurement": "remaining activity at 0.2 µM", "setting": "[6]; 0.2 µM 2015, read-out: NEK9 residual activity", "result": 96.5, "unit": "%"},
      {"measurement": "remaining activity at 1 µM", "setting": "[6]; 1 µM 2015, read-out: NEK9 residual activity", "result": 93, "unit": "%"},
      {"measurement": "remaining activity at 0.2 µM", "setting": "[6]; NEK9, 0.2 µM, read-out: residual activity", "result": 96.5, "unit": "%"},
      {"measurement": "remaining activity at 1 µM", "setting": "[6]; NEK9, 1 µM, read-out: residual activity", "result": 93, "unit": "%"},
      {"measurement": "remaining activity at 0.2 µM", "setting": "[7]; 0.2 µM 2015, read-out: GSG2 residual activity", "result": 105, "unit": "%"},
      {"measurement": "remaining activity at 1 µM", "setting": "[7]; 1 µM 2015, read-out: GSG2 residual activity", "result": 82.5, "unit": "%"},
      {"measurement": "remaining activity at 0.2 µM", "setting": "[7]; GSG2, 0.2 µM, read-out: residual activity", "result": 105, "unit": "%"},
      {"measurement": "remaining activity at 1 µM", "setting": "[7]; GSG2, 1 µM, read-out: residual activity", "result": 82.5, "unit": "%"}
    ]}
  ]
}
